# Test results: patent publication US10160724B2, “Tetrahydropyridine derivatives and their use as antibacterial agents” (Dong-A St Co., Ltd., priority 2016, dated 2018)
# Tests used:
# Test in all cases: In vitro antibiotic activity, agar dilution method (Mueller-Hinton agar, NCCLS)
# Assay type in all cases: cell-based
# [1] = system: P. aeruginosa PAO1; details: Pseudomonas aeruginosa, PAO1; agar dilution, Mueller-Hinton agar; read-out: MIC for P. aeruginosa PAO1
# Method in brief: (§1)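 MICs determined by agar dilution on Mueller-Hinton agar following NCCLS M7 guidance, against E. coli ATCC 25922, K. pneumoniae ATCC 29665 and P. aeruginosa PAO1.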
# [2] = system: E. coli ATCC 25922; details: Escherichia coli, ATCC25922; agar dilution, Mueller-Hinton agar; read-out: MIC for E. coli ATCC 25922
# Method in brief: as §1
# [3] = system: K. pneumoniae ATCC 29665; details: Klebsiella pneumoniae, ATCC29665; agar dilution, Mueller-Hinton agar; read-out: MIC for K. pneumoniae ATCC 29665
# Method in brief: as §1
Structure (SMILES),MIC [1] [µg/mL],MIC [2] [µg/mL],MIC [3] [µg/mL]
"Cc1csc(-c2ccc(C3=CCN(CCC(C)(C(=O)NO)S(C)(=O)=O)CC3)cc2)c1.Cl (stereo not drawn) [Example 72, N-hydroxy-2-methyl-2-(methylsulfonyl)-4-(4-(4-(4-methylthiophen-2-yl)phenyl)-3,6-dihydropyridin-1(2H)-yl)butanamide hydrochloride]",> 16,< 1,< 1
"CCS(=O)(=O)c1ccc(-c2ccc(C3=CCN(CCC(C)(C(=O)NO)S(C)(=O)=O)CC3)cc2)cc1.Cl (stereo not drawn) [Example 73, 4-(4-(4′-(ethylsulfonyl)-[1,1′-biphenyl]-4-yl)-3,6-dihydropyridin-1(2H)-yl)-N-hydroxy-2-methyl-2-(methylsulfonyl)butanamide hydrochloride]",1 to 8,< 1,1 to 8
"CC(CCN1CC=C(c2ccc(-c3ccc(CN4CCOCC4)cc3)cc2)CC1)(C(=O)NO)S(C)(=O)=O (stereo not drawn) [Example 74, N-hydroxy-2-methyl-2-(methylsulfonyl)-4-(4-(4′-(morpholinomethyl)-[1,1′-biphenyl]-4-yl)-3,6-dihydropyridin-1(2H)-yl)butanamide]",1 to 8,< 1,< 1
"COCC#Cc1ccc(C2=CCN(CCC(C)(C(=O)NO)S(C)(=O)=O)CC2)cn1 (stereo not drawn) [Example 75, N-hydroxy-4-(6-(3-methoxyprop-1-yn-1-yl)-3′,6′-dihydro-[3,4′-bipyridin]-1′(2′H)-yl)-2-methyl-2-(methylsulfonyl)butanamide]",> 16,> 16,> 16
"CC(CN1CC=C(c2ccc(-c3ccccc3)cc2)CC1)(C(=O)NO)S(C)(=O)=O (stereo not drawn) [Example 76, 3-(4-([1,1′-biphenyl]-4-yl)-3,6-dihydropyridin-1(2H)-yl)-N-hydroxy-2-methyl-2-(methylsulfonyl)propanamide]",> 16,> 16,> 16
